Data from US11076595B2, “1-(n,n-disubstituted carbamoyl) 4-(substituted sulfonyl)triazolin-5-one derivative, 4-(n,n-disubstituted carbamoyl) 1-(substituted sulfonyl)triazolin-5-one derivative, and herbicide containing said derivative as active ingredient” (HOKKO CHEMICAL INDUSTRY CO., LTD., priority 2017, dated 2021).

Columns and labels:
Format in all cases: in vivo
Echinochloa crus-galli [1] = assay: Test Example 11: herbicidal effect test by soil treatment in paddy field; settings: 120 g/10a active ingredient, 14 days after treatment
Procedure, shortened: (§1)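 Weed suppression rate (%) was calculated as (1 − mean treated dry weight / mean untreated dry weight) × 100 at 14 days after treatment, two replicates per plot. Seeds were sown at 0–1 cm in flooded (about 3 cm) puddled paddy soil and treated immediately at 120 g active ingredient per 10 are.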

Lindernia pyxidaria [2] = assay: as above; settings: 120 g/10a active ingredient, 14 days after treatment
Procedure, shortened: as §1

Monochoria vaginalis [3] = assay: as above; settings: 120 g/10a active ingredient, 14 days after treatment
Procedure, shortened: as §1

Scirpus juncoides [4] = assay: as above; settings: 120 g/10a active ingredient, 14 days after treatment
Procedure, shortened: as §1

Echinochloa crus-galli [5] = assay: Test Example 12: herbicidal effect test by treatment during growing period in paddy field; settings: 120 g/10a; treatment seven days after sowing in flooded paddy pot; assessed 14 days after treatment
Procedure, shortened: (§2)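 Growing-period treatment in flooded paddy pots: the diluted emulsifiable concentrate was dripped in at 120 g a.i. per 10 are seven days after seeding. Inhibition is expressed as percent reduction in dry weight versus untreated pots, measured 14 days later in duplicate.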

Lindernia pyxidaria [6] = assay: as above; settings: 120 g/10a; treatment seven days after sowing in flooded paddy pot; assessed 14 days after treatment
Procedure, shortened: as §2

Monochoria vaginalis [7] = assay: as above; settings: 120 g/10a; treatment seven days after sowing in flooded paddy pot; assessed 14 days after treatment
Procedure, shortened: as §2

Scirpus juncoides [8] = assay: as above; settings: 120 g/10a; treatment seven days after sowing in flooded paddy pot; assessed 14 days after treatment
Procedure, shortened: as §2

Amaranthus viridis [9] = assay: Test Example 13: herbicidal effect test by soil treatment in upland field; settings: 120 g/10a, 14 days after treatment
Method: (§3) A pot having a size of 36 cm^2 was filled with field soil (alluvial soil) and after mixing the soil of the surface layer of 1 cm with 20 grains of each weed seed of crabgrass, Echinochloa crus-galli, Chenopodium album and Amaranthus viridis, the surface layer was pressed lightly. One day after the sowing, an emulsifiable concentrate prepared according to Formulation Example 15 by using the compound shown in Table 11 below was diluted with water, and the water-diluted formulation was sprayed on the soil surface at a ratio of 100 liter per 10 are. The application rate of the active ingredient, by conversion, corresponded to 120 g per 10 are. Fourteen Days after the formulation treatment, the herbicidal effect was evaluated by the same criteria as in Test Example 11.

Chenopodium album [10] = assay: as above; settings: 120 g/10a, 14 days after treatment
Method: as §3

Echinochloa crus-galli [11] = assay: as above; settings: 120 g/10a, 14 days after treatment
Method: as §3

crabgrass [12] = assay: as above; settings: 120 g/10a, 14 days after treatment
Method: as §3

Chenopodium album [13] = assay: Test Example 14: herbicidal effect test by foliage treatment in upland field; settings: 7 days after sowing, 120 g/10a, 14 days after treatment
Procedure, shortened: (§4)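 Dose: 120 g a.i. per 10 are, sprayed in 100 L water per 10 are onto pots seven days post-sowing in alluvial soil. After 14 days, weed dry weight relative to untreated plots gave suppression rate (%); duplicate plots per concentration.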

crabgrass [14] = assay: as above; settings: 7 days after sowing, 120 g/10a, 14 days after treatment
Procedure, shortened: as §4

Amaranthus viridis [15] = assay: as above; settings: 7 days after sowing, 120 g/10a, 14 days after treatment
Procedure, shortened: as §4

Echinochloa crus-galli [16] = assay: as above; settings: 7 days after sowing, 120 g/10a, 14 days after treatment
Procedure, shortened: as §4

SMILES | Weed suppression rate (%) Echinochloa crus-galli (Echinochloa crus-galli [1]) | Weed suppression rate (%) Lindemia pyxidaria (Lindernia pyxidaria [2]) | Weed suppression rate (%) Monochoria vaginalis (Monochoria vaginalis [3]) | Weed suppression rate (%) Scirpus juncoides (Scirpus juncoides [4]) | Weed suppression rate (%) Echinochloa crus-galli (Echinochloa crus-galli [5]) | Weed suppression rate (%) Lindemia pyxidaria (Lindernia pyxidaria [6]) | Weed suppression rate (%) Monochoria vaginalis (Monochoria vaginalis [7]) | Weed suppression rate (%) Scirpus juncoides (Scirpus juncoides [8]) | herbicidal effect, Amaranthus viridis (Amaranthus viridis [9]) | herbicidal effect, Chenopodium album (Chenopodium album [10]) | herbicidal effect, Echinochloa crus-galli (Echinochloa crus-galli [11]) | herbicidal effect, Crabgrass (crabgrass [12]) | herbicidal effect, Chenopodium album (Chenopodium album [13]) | herbicidal effect, Crabgrass (crabgrass [14]) | herbicidal effect, Amaranthus viridis (Amaranthus viridis [15]) | herbicidal effect, Echinochloa crus-galli (Echinochloa crus-galli [16])
Cc1cc(F)ccc1N(C(=O)n1cnn(S(C)(=O)=O)c1=O)C(C)C [Compound 11-25] | 90% | 70% | 60% | 90% | 100% | 70% | 70% | 100% | 30% | 30% | 80% | 100% | – | – | – | –
CC(C)N(C(=O)n1cnn(S(=O)(=O)C(F)(F)F)c1=O)c1ccc(F)cc1F [Compound 11-95] | 100% | 100% | 50% | 100% | 90% | 60% | 90% | 70% | 0% | 0% | 70% | 70% | – | – | – | –
Cc1cc(F)ccc1N(C(=O)n1cnn(S(=O)(=O)C2CC2)c1=O)C(C)C [Compound 11-211] | 100% | 100% | 80% | 90% | 100% | 80% | 80% | 100% | 70% | 70% | 100% | 100% | – | – | – | –
CC(C)N(C(=O)n1cnn(S(=O)(=O)C2CC2)c1=O)c1ccc(C#N)cc1Cl [Compound 11-222] | 90% | 80% | 80% | 90% | 90% | 80% | 80% | 90% | 90% | 80% | 80% | 90% | – | – | – | –
CC(C)N(C(=O)n1cnn(S(=O)(=O)C2CCCCC2)c1=O)c1ccccc1F [Compound 11-284] | 100% | 100% | 100% | 100% | 100% | 100% | 100% | 90% | 90% | 80% | 80% | 90% | – | – | – | –
Cc1ccc(N(C(=O)n2cnn(S(=O)(=O)C3CCCCC3)c2=O)C(C)C)c(F)c1 [Compound 11-308] | 90% | 90% | 90% | 90% | 90% | 80% | 80% | 90% | 90% | 80% | 80% | 90% | – | – | – | –
CCN(CC)C(=O)n1cnn(S(=O)(=O)c2ccc(C)cc2)c1=O [Compound 11-625] | 100% | 80% | 40% | 60% | – | – | – | – | 0% | 0% | 80% | 80% | – | – | – | –
CCN(CC)C(=O)n1cnn(S(=O)(=O)c2ccc(C(C)(C)C)cc2)c1=O [Compound 11-670] | 50% | 70% | 50% | 60% | – | – | – | – | 0% | 0% | 70% | 70% | – | – | – | –
CC(C)N(C(=O)n1cnn(S(=O)(=O)c2cccnc2)c1=O)c1ccc(F)cc1F [Compound 11-985] | 90% | 60% | 40% | 40% | – | – | – | – | 0% | 0% | 80% | 80% | – | – | – | –
CN(C(=O)n1cnn(S(=O)(=O)C2CCCCC2)c1=O)c1ccc(F)cc1F [Compound 11-1129] | 100% | 100% | 100% | 100% | 100% | 70% | 80% | 100% | – | – | – | – | 60% | 90% | 70% | 70%
CCS(=O)(=O)n1ncn(C(=O)N(c2ccc(F)c(F)c2F)C(C)C)c1=O [Compound 11-1152] | 100% | 100% | 100% | 100% | 100% | 100% | 100% | 100% | – | – | – | – | 80% | 100% | 90% | 100%
